Measured values as given in paper PMC4947684, “In Vivo and In Vitro Genotoxic and Epigenetic Effects of Two Types of Cola Beverages and Caffeine: A Multiassay Approach” (BioMed Research International, 2016).
Read-outs that look alike come from different tables or passages of the source.

Columns and labels:
D. melanogaster larvae [1] = assay: Antitoxicity assay (combined treatment with […] H2O2)
Description: (§2) Negative (H2O) and positive (0.15 M H2O2) toxicant concurrent controls were also assayed. Test groups consisted of larvae fed with Drosophila Instant Medium (Formula 4–24, Carolina Biological Supply, Burlington, NC) supplemented with the beverage concentrations tested. Emerging adults of all groups were counted and toxicity was determined as the percentage of hatched individuals in each treatment compared with the negative control. Antitoxicity was assessed using the same procedure and experimental concentrations as in toxicity assays, but in combined treatments with 0.15 M H2O2 and comparing the percentage of emerging adults with the positive toxicant control [34]. […] Negative control values were considered as those expected in Chi-square formula used in toxicity assay and positive control values in antitoxicity assays [35]. The same concentrations of toxicity and antitoxicity assays within the same substance were also compared.

LINE-1 = assay: Methylation status of HL-60 cells (qMSP); assay type: cell-based, human; conditions: HL-60, 5 h, 0.51 mM
Description: Then, DNA was extracted similarly to previously described DNA fragmentation assay. After that, the DNA was converted with bisulphite (EZ DNA Methylation-Gold™ Kit). Bisulphite-modified DNA was used for fluorescence-based real-time quantitative Methylation-Specific PCR (qMSP) using 5 μM of each forward and reverse primer (Isogen Life Science BV), 2 μL of iTaq™ Universal SYBR® Green Supermix (Bio-Rad, it contains antibody-mediated hot-start iTaq DNA polymerase, dNTPs, MgCl2, SYBR Green I Dye, enhancers, stabilizers, and a blend of passive reference dyes including ROX and fluorescein) and 25 ng of bisulphite converted genomic DNA. PCR conditions included initial denaturalisation at 95°C for 3 minutes and amplification which consisted of 45 cycles at 95°C for 10 seconds, 60°C for 15 seconds, and 72°C for 15 seconds, taking picture at the end of each elongation cycle. After that, melting curve was determined increasing 0.5°C each […] from 60°C to 95°C and taking pictures. QMSP was carried out in 48-well plates in MiniOpticon Real-Time PCR System (MJ Mini Personal Thermal Cycler, Bio-Rad) and were analysed by Bio-Rad CFX Manager 3.1 software. […] Alu-C4 and the target repetitive elements Alu M1, LINE-1, and Sat-α were obtained from Isogen Life Science and their sequences are shown in Table 1. Each sample was analysed in triplicate. The results of each CT were obtained from each qMSP. […]

Drosophila melanogaster [2] = assay: Chronic treatments: lifespan and healthspan assays; assay type: in vivo; conditions: for Healthspan difference (%) / Mean lifespan difference (%): versus concurrent water control
Description: We also tested the same compounds and concentrations as in the toxicity/antitoxicity experiments. Lifespan assays were carried out at 25°C according to the procedure described by Fernandez-Bedmar et al.. Briefly, synchronised 72 ± 12-hour-old transheterozygous larvae were washed in distilled water, collected, and transferred in groups of 100 individuals into test vials containing 0.85 g Drosophila Instant Medium and 4 mL of the different concentrations of the compounds to be assayed. Emerged adults from pupae were collected under CO2 anaesthesia and placed in groups of 25 individuals of the same sex into sterile vials containing 0.21 g Drosophila Instant Medium and 1 mL of different concentrations of the compounds to be tested. Flies were chronically treated during all their life. The number of survivors was determined twice a week.

HL-60 cells [3] = assay: DNA fragmentation status (internucleosomal ladder); assay type: cell-based, human; conditions: HL-60, 5 h, any CAF treatment
Description: The ability of our compounds to induce DNA fragmentation was determined as described by Anter et al.. […] After treatment, genomic DNA was extracted using a commercial kit (Blood Genomic DNA Extraction Mini Spin Kit, […] Biotech, Cordoba, Spain). Subsequently, DNA was incubated overnight with RNase at 37°C and quantified in a spectrophotometer (Nanodrop® ND-1000). Finally, 1200 ng DNA was electrophoresed in a 2% agarose gel for 120 min at 50 V, stained with ethidium bromide, and visualised under UV light. The apoptosis process is recognised by the appearance of internucleosomal DNA fragments that are multiple of 200 base pairs.

HL-60 = test system: HL-60; design: method as in PMID 1311329; conditions: at 5 mM; cited from earlier work
Drosophila melanogaster [4] = assay: Antigenotoxicity, Drosophila wing spot test (SMART), combined with H2O2; conditions: combined treatment with […] H2O2, mwh/flr3, 0.51 mM
Description: (§3) Genotoxicity assays were carried out following the wing spot test standard procedure [20]. Briefly, transheterozygous larvae for mwh and flr ^3 genes were obtained by crossing four-day-old virgin flr ^3 females with mwh males in a 2 : 1 ratio. Four days after fertilization, females were allowed to lay eggs in fresh yeast medium (25 g yeast and 4 mL sterile distilled water) for 8 h in order to obtain synchronised larvae. After 72 h, larvae were collected, washed with distilled water, and clustered in groups of 100 individuals. […] Adult flies were collected and stored in 70% ethanol until the wings were removed and mounted on slides using Faure's solution. Mutant spots were assessed in both dorsal and ventral surfaces of the wings in a bright light microscope at 400x magnification. The frequencies of each type of mutant clone per wing (single, large, or twin spot) were compared to the concurrent negative control and analysed applying the binomial Kastenbaum and Bowman Test [36]. Antigenotoxicity tests were performed following the method described by Anter et al. [37]. […] Single and twin spots per wing were also recorded and compared with the concurrent positive control as described before. The recombination percentage was calculated following Valadares et al. [38] procedure and the inhibition percentages (IP) for the combined treatments were calculated from the control-corrected frequencies of clone formation per 10^5 cells, according to Abraham [39]: IP = [(genotoxin alone − combined treatment)/genotoxin alone] × 100.

D. melanogaster larvae [5] = test system: D. melanogaster larvae
Description: as §2

[6] = test system: human breast cancer cells; design: method as in PMID 25691730; conditions: cited from earlier work
HL-60 cells [7] = assay: Cytotoxicity assay (trypan blue exclusion); assay type: cell-based, human; conditions: Homo sapiens; HL-60, highest tested concentration 20.4 mM; read-out: Inhibition of cell growth
Description: (§1) Promyelocytic human leukaemia (HL-60) cells were grown in RPMI-1640 medium (Sigma, R5886) supplemented with heat-inactivated foetal bovine serum (Linus, S01805), L-glutamine 200 mM (Sigma, G7513), and 1x antibiotic-antimycotic solution (Sigma, A5955). Cells were incubated at 37°C in a humidified atmosphere of 5% CO2. Cultures were plated at 2.5 × 10^4 cells/mL density in 10 mL culture bottles and passed every 2 days. The effect of the assayed compounds on cell viability was determined by the trypan blue exclusion test according to our standard procedures. […] After culture, cells were stained with a 1 : 1 volume ratio of trypan blue dye (Sigma, T8154) and counted in a Neubauer chamber at 100x magnification. The survival percentage of each treatment compared with the control was recorded in three independent replicates.

[8] = Cytotoxicity assay (trypan blue exclusion); assay type: cell-based, human; conditions: human, HL-60 cells; HL-60, 72 h; read-out: IC50 (cytotoxicity), not reached at highest tested concentration
Description: as §1

Drosophila melanogaster [9] = assay: Genotoxicity, Drosophila wing spot test (SMART); conditions: […] H2O2 alone
Description: as §3

[10] = mwh/TM3 balancers-heterozygous wings

Cn1c(=O)c2c(ncn2C)n(C)c1=O [CAF, 1,3,7-trimethylpurine-2,6-dione]
Survival (%) combined treatment (D. melanogaster larvae [1]; 0.004 mM + […] hydrogen peroxide): 54^Δ % | Survival (%) combined treatment (D. melanogaster larvae [1]; 0.032 mM + […] hydrogen peroxide): 51^Δ % | Survival (%) combined treatment (D. melanogaster larvae [1]; 0.127 mM + […] hydrogen peroxide): 54.66^Δ % | Survival (%) combined treatment (D. melanogaster larvae [1]; 0.51 mM + […] hydrogen peroxide): 51.33^Δ % | Methylation status (LINE-1): decrease of methylation status | Healthspan (80th percentile) (days) (Drosophila melanogaster [2]; 0.004 mM, mean ± SE): 47 ± 2.65^∗∗ days | Mean lifespan (Drosophila melanogaster [2]; 0.004 mM, mean ± SE): 62.88 ± 1.7 days | Healthspan difference (%) (Drosophila melanogaster [2]; 0.004 mM): 55.73% | Mean lifespan difference (%) (Drosophila melanogaster [2]; 0.004 mM): 6.87% | Mean lifespan (days) (Drosophila melanogaster [2]; 0.032 mM, mean ± SE): 68.86 ± 2.38^∗∗ days | Healthspan difference (%) (Drosophila melanogaster [2]; 0.032 mM): 40.32% | Mean lifespan difference (%) (Drosophila melanogaster [2]; 0.032 mM): 17.02% | Mean lifespan (days) (Drosophila melanogaster [2]; 0.127 mM, mean ± SE): 70.91 ± 2.99^∗∗∗ days | Healthspan difference (%) (Drosophila melanogaster [2]; 0.127 mM): 22.23% | Mean lifespan difference (%) (Drosophila melanogaster [2]; 0.127 mM): 20.52% | Mean lifespan (Drosophila melanogaster [2]; 0.51 mM, mean ± SE): 61.14 ± 2.07 days | Healthspan difference (%) (Drosophila melanogaster [2]; 0.51 mM): 26.41% | Mean lifespan difference (%) (Drosophila melanogaster [2]; 0.51 mM): 3.91% | Drosophila lifespan increase, on average (Drosophila melanogaster [2]; on average): more than 15% | Ladder pattern of fragmented internucleosomal DNA (HL-60 cells [3]): not observed | Growth inhibition (in words) (HL-60): inhibited HL-60 growth | Clones per wings: large simple spots (>2 cells) m = 5 (Drosophila melanogaster [4]): 0.125 (10) clones/wing | Clones per wings: small single spots (1-2 cells) m = 2 (Drosophila melanogaster [4]): 0.325 (26) clones/wing | Clones per wings: total spots m = 2 (Drosophila melanogaster [4]): 0.45 clones/wing | Clones per wings: twin spots m = 5 (Drosophila melanogaster [4]): 0 clones/wing | Frequency of clone formation per 10^5 cells, control corrected (Drosophila melanogaster [4]): 0.766 per 10^5 cells | Frequency of clone formation per 10^5 cells, observed (Drosophila melanogaster [4]): 1.844 per 10^5 cells | Survival (%) simple treatment (D. melanogaster larvae [5]; 0.004 mM): 100% | Survival (%) simple treatment (D. melanogaster larvae [5]; 0.032 mM): 100% | Survival (%) simple treatment (D. melanogaster larvae [5]; 0.127 mM): 100% | Survival (%) simple treatment (D. melanogaster larvae [5]; 0.51 mM): 100% | IC50 [6]: ~5 mM | inhibition at 20400 µM (HL-60 cells [7]): ~40% | IC50 at 72 h [8]: > 20.4 mM

OO [H2O2, hydrogen peroxide]
Survival (%) positive toxicant control (D. melanogaster larvae [1]; […] H2O2 alone): 46.66% | Clones per wings: large simple spots (>2 cells) m = 5 (Drosophila melanogaster [9]; [10]): 0.013 (1) clones/wing | Clones per wings: small single spots (1-2 cells) m = 2 (Drosophila melanogaster [9]; [10]): 0.188 (15) clones/wing | Frequency of clone formation per 10^5 cells, observed (Drosophila melanogaster [9]; mwh/TM3 wings): 0.819 per 10^5 cells | Clones per wings: large simple spots (>2 cells) m = 5 (Drosophila melanogaster [9]; mwh/flr3 wings): 0.088 (7) clones/wing | Clones per wings: small single spots (1-2 cells) m = 2 (Drosophila melanogaster [9]; mwh/flr3 wings): 0.313 (25) clones/wing | Clones per wings: total spots m = 2 (Drosophila melanogaster [9]; mwh/flr3 wings): 0.438 clones/wing | Clones per wings: twin spots m = 5 (Drosophila melanogaster [9]; mwh/flr3 wings): 0.038 (3) clones/wing | Frequency of clone formation per 10^5 cells, control corrected (Drosophila melanogaster [9]; mwh/flr3 wings): 0.717 per 10^5 cells | Frequency of clone formation per 10^5 cells, observed (Drosophila melanogaster [9]; mwh/flr3 wings): 1.795 per 10^5 cells | Statistical diagnosis of total spots (Drosophila melanogaster [9]; mwh/flr3 wings, versus negative control): +
